According to US8772500B2, “TRPV3 modulators” (AbbVie Inc., priority 2011, dated 2014):

What was measured:
[1] = In vitro human microsomal stability assay; assay type: in vitro ADME
Experimental: (§1) Test compounds were evaluated for metabolic stability in an in vitro rat microsomal stability assay using rat (Sprague-Dawley, from BD Biosciences) liver microsomes and/or an in vitro human microsomal stability assay using human (Xenotech) liver microsomes. […] Incubations were carried out at 37° C. with a final incubation volume of 135 μL. […] A 1.5 μL aliquot of reduced nicotine adenine disphosphonucleotide (NADPH) (Chem-Impex Int'L Inc., Lot 12532024) was also added to the time-zero plates.

[2] = In vitro rat microsomal stability assay; assay type: in vitro ADME, rat (Sprague-Dawley)
Experimental: as §1

[3] = Sprague-Dawley, rat, 0.5 h, 0.5 μM, pH 7.4
[4] = 0.5 μM substrate, 0.25 mg/mL microsomal protein, pH 7.4, 37° C., NADPH, 30 minutes

Row | HUMAN MICROSOMAL STABILITY (% REMAINING AFTER 30 MINUTES) ([1]; human, 0.5 h, 0.5 μM, pH 7.4) [%] | RAT MICROSOMAL STABILITY (% REMAINING AFTER 30 MINUTES) [2, 3] [%] | Structure (SMILES) | HUMAN MICROSOMAL STABILITY (% REMAINING AFTER 30 MINUTES) [1, 4] [%] | RAT MICROSOMAL STABILITY (% REMAINING AFTER 30 MINUTES) [2, 4] [%]
1 | >85 | 79 | OC(c1ccccn1)C1(c2ccc(C(F)(F)F)cc2)CCNCC1 (stereo not drawn) [Example 147, pyridin-2-yl{4-[4-(trifluoromethyl)phenyl]piperidin-4-yl}methanol] | – | –
2 | 26 | 0.08 | CC(C)(C)OC(=O)N1CCC(c2ccc(C(F)(F)F)cc2)(C(O)c2ccccn2)CC1 (stereo not drawn) [Example 156, tert-butyl 4-[hydroxy(pyridin-2-yl)methyl]-4-[4-(trifluoromethyl)phenyl]-piperidine-1-carboxylate] | – | –
3 | 28 | 0.93 | CC(C)(C)OC(=O)N1CCC(c2ccc(OC(F)(F)F)cc2)(C(O)c2ccccn2)CC1 (stereo not drawn) [Example 157, tert-butyl 4-[hydroxy(pyridin-2-yl)methyl]-4-[4-(trifluoromethoxy)phenyl]-piperidine-1-carboxylate] | – | –
4 | – | – | CC(C)(C)OC(=O)N1CCC(c2cccc(OC(F)(F)F)c2)(C(O)c2ccccn2)CC1 (stereo not drawn) [Example 158, tert-butyl 4-[hydroxy(pyridin-2-yl)methyl]-4-[3-(trifluoromethoxy)phenyl]-piperidine-1-carboxylate] | 3.7 | 0.04
5 | 71 | 81 | O=C1CC(c2ccc(C(F)(F)F)cc2)([C@H](O)c2ccccn2)C1 [Example 164, 3-[(S)-hydroxy(pyridin-2-yl)methyl]-3-[4-(trifluoromethyl)phenyl]-cyclobutanone] | – | –
6 | 83 | 77 | O=C1CC(c2ccc(C(F)(F)F)cc2)([C@@H](O)c2ccccn2)C1 [Example 165, 3-[(R)-hydroxy(pyridin-2-yl)methyl]-3-[4-(trifluoromethyl)phenyl]cyclobutanone] | – | –
7 | 9.5 | <0.01 | OC(C1CCc2cccnc21)C1(c2ccc(Cl)c(Cl)c2)CCC1 (stereo not drawn) [Example 167, (anti)-[1-(3,4-dichlorophenyl)cyclobutyl][6,7-dihydro-5H-cyclopenta[b]-pyridin-7-yl]methanol] | – | –
8 | <0.01 | <0.01 | OC(C1CCCc2cccnc21)C1(c2ccc(F)c(F)c2)CCC1 (stereo not drawn) [Example 170, (syn)-[1-(3,4-difluorophenyl)cyclobutyl][5,6,7,8-tetrahydroquinolin-8-yl]-methanol] | – | –
9 | 2.7 | <0.01 | OC(C1CCc2cccnc21)C1(c2ccc(F)c(F)c2)CCC1 (stereo not drawn) [Example 171, (anti)-[1-(3,4-difluorophenyl)cyclobutyl][6,7-dihydro-5H-cyclopenta[b]-pyridin-7-yl]methanol] | – | –
10 | 2.4 | <0.01 | OC(C1CCc2cccnc21)C1(c2ccc(F)c(F)c2)CCC1 (stereo not drawn) [Example 172, (syn)-[1-(3,4-difluorophenyl)cyclobutyl][6,7-dihydro-5H-cyclopenta[b]-pyridin-7-yl]methanol] | – | –
11 | 45 | <0.01 | OC(C1CCc2cccnc21)C1(c2ccc(C(F)(F)F)cc2)CCC1 (stereo not drawn) [Example 173, (anti)-6,7-dihydro-5H-cyclopenta[b]pyridin-7-yl{1-[4-(trifluoromethyl)-phenyl]cyclobutyl}methanol] | – | –
12 | 26 | <0.01 | OC(C1CCc2cccnc21)C1(c2ccc(C(F)(F)F)cc2)CCC1 (stereo not drawn) [Example 174, (syn)-6,7-dihydro-5H-cyclopenta[b]pyridin-7-yl{1-[4-(trifluoromethyl)-phenyl]cyclobutyl}methanol] | – | –
13 | 29 | <0.01 | OC(C1CCc2cccnc21)C1(c2ccc(OC(F)(F)F)cc2)CCC1 (stereo not drawn) [Example 175, (anti)-6,7-dihydro-5H-cyclopenta[b]pyridin-7-yl{1-[4-(trifluoromethoxy)-phenyl]cyclobutyl}methanol] | – | –
14 | 20 | <0.01 | OC(C1CCc2cccnc21)C1(c2ccc(OC(F)(F)F)cc2)CCC1 (stereo not drawn) [Example 176, (syn)-6,7-dihydro-5H-cyclopenta[b]pyridin-7-yl{1-[4-(trifluoromethoxy)-phenyl]cyclobutyl}methanol] | – | –
15 | 0.39 | <0.01 | OC(C1CCc2cccnc21)C1(c2cccc(C(F)(F)F)c2)CCC1 (stereo not drawn) [Example 185, (anti)-6,7-dihydro-5H-cyclopenta[b]pyridin-7-yl{1-[3-(trifluoromethyl)-phenyl]cyclobutyl}methanol] | – | –
16 | <0.01 | <0.01 | OC(C1CCCc2cccnc21)C1(c2cccc(OC(F)(F)F)c2)CCC1 (stereo not drawn) [Example 187, (anti)-5,6,7,8-tetrahydroquinolin-8-yl{1-[3-(trifluoromethoxy)phenyl]-cyclobutyl}methanol] | – | –
17 | 0.16 | <0.01 | OC(C1CCCc2cccnc21)C1(c2cccc(OC(F)(F)F)c2)CCC1 (stereo not drawn) [Example 188, (syn)-5,6,7,8-tetrahydroquinolin-8-yl{1-[3-(trifluoromethoxy)phenyl]-cyclobutyl}methanol] | – | –
18 | 0.65 | <0.01 | OC(C1CCc2cccnc21)C1(c2cccc(OC(F)(F)F)c2)CCC1 (stereo not drawn) [Example 189, (anti)-6,7-dihydro-5H-cyclopenta[b]pyridin-7-yl{1-[3-(trifluoromethoxy)-phenyl]cyclobutyl}methanol] | – | –
19 | 3.7 | <0.01 | OC(C1CCc2cccnc21)C1(c2cccc(OC(F)(F)F)c2)CCC1 (stereo not drawn) [Example 190, (syn)-6,7-dihydro-5H-cyclopenta[b]pyridin-7-yl{1-[3-(trifluoromethoxy)-phenyl]cyclobutyl}methanol] | – | –
20 | <0.01 | <0.01 | OC(C1CCCc2cccnc21)C1(c2ccccc2OC(F)(F)F)CCC1 (stereo not drawn) [Example 191, (anti)-5,6,7,8-tetrahydroquinolin-8-yl{1-[2-(trifluoromethoxy)phenyl]-cyclobutyl}methanol] | – | –
21 | <0.01 | <0.01 | OC(C1CCCc2cccnc21)C1(c2ccccc2OC(F)(F)F)CCC1 (stereo not drawn) [Example 192, (syn)-5,6,7,8-tetrahydroquinolin-8-yl{1-[2-(trifluoromethoxy)phenyl]-cyclobutyl}methanol] | – | –
22 | 0.02 | <0.01 | OC(C1CCc2cccnc21)C1(c2ccccc2OC(F)(F)F)CCC1 (stereo not drawn) [Example 193, (anti)-6,7-dihydro-5H-cyclopenta[b]pyridin-7-yl{1-[2-(trifluoromethoxy)-phenyl]cyclobutyl}methanol] | – | –
23 | 0.08 | <0.01 | OC(C1CCc2cccnc21)C1(c2ccccc2OC(F)(F)F)CCC1 (stereo not drawn) [Example 194, (syn)-6,7-dihydro-5H-cyclopenta[b]pyridin-7-yl{1-[2-(trifluoromethoxy)-phenyl]cyclobutyl}methanol] | – | –
24 | <0.01 | <0.01 | OC(C1CCCc2cccnc21)C1(c2ccccc2C(F)(F)F)CCC1 (stereo not drawn) [Example 195, (anti)-5,6,7,8-tetrahydroquinolin-8-yl{1-[2-(trifluoromethyl)phenyl]-cyclobutyl}methanol] | – | –
25 | <0.01 | <0.01 | OC(C1CCCc2cccnc21)C1(c2ccccc2C(F)(F)F)CCC1 (stereo not drawn) [Example 196, (syn)-5,6,7,8-tetrahydroquinolin-8-yl{1-[2-(trifluoromethyl)phenyl]-cyclobutyl}methanol] | – | –
26 | 0.26 | <0.01 | OC(C1CCc2cccnc21)C1(c2ccccc2C(F)(F)F)CCC1 (stereo not drawn) [Example 197, (anti)-6,7-dihydro-5H-cyclopenta[b]pyridin-7-yl{1-[2-(trifluoromethyl)-phenyl]cyclobutyl}methanol] | – | –
27 | 0.05 | <0.01 | OC(C1CCc2cccnc21)C1(c2ccccc2C(F)(F)F)CCC1 (stereo not drawn) [Example 198, (syn)-6,7-dihydro-5H-cyclopenta[b]pyridin-7-yl{1-[2-(trifluoromethyl)-phenyl]cyclobutyl}methanol] | – | –
28 | 33 | 30 | O/N=C(\c1ccccn1)C1(c2ccc(Cl)c(Cl)c2)CCC1 [Example 230, (Z)-[1-(3,4-dichlorophenyl)cyclobutyl](pyridin-2-yl)methanone oxime] | – | –
29 | 57 | 0.072 | OC(c1ccccn1)C1(C2CCOCC2)CCC1 (stereo not drawn) [Example 239, pyridin-2-yl[1-(tetrahydro-2H-pyran-4-yl)cyclobutyl]methanol] | – | –
30 | 66 | 59 | O=C1CC(c2cccc(C(F)(F)F)c2)([C@H](O)c2ccccn2)C1 [Example 241, 3-[(S)-hydroxy(pyridin-2-yl)methyl]-3-[3-(trifluoromethyl)phenyl]-cyclobutanone] | – | –
